Laboratory results reported in patent publication US5424309A, “N-substituted acylamino acid compounds, process for their production and their use” (Banyu Pharmaceutical Co., Ltd., priority 1988, dated 1995).

The molecules below were run against T1, human plasma renin (Homo sapiens, UniProt P00797) (assay: Renin inhibiting activities (human plasma, angiotensin I by radio immunoassay)). Details: pH7.4, 37° C., one hour, read-out: IC50 (50 % inhibition concentrations), renin inhibiting activity.
T1 construct: from tissue; host or cells: human plasma
T1 sequence (P00797 67-406): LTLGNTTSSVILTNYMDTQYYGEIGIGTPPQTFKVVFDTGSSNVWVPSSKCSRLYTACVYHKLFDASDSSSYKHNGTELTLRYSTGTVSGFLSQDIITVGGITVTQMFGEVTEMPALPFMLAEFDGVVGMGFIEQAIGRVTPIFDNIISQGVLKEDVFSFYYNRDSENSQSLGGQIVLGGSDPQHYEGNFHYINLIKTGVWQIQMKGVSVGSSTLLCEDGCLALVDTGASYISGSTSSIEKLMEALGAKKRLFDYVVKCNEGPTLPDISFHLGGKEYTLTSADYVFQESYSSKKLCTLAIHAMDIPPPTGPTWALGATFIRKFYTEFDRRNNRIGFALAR
Format: biochemical
Procedure: To 156 μl of a 0.2M sodium phosphate buffer solution (pH7.4), 40 μl of a solution mixture of 34 mM 8-hydroxyquinoline and 100 mM disodium ethylenediamine tetraacetate, 4 μl of dimethyl sulfoxide or a dimethyl sulfoxide solution of test compound and 200 μl of human plasma were added and reacted at 37° C. for one hour. Then, pepstatin was added thereto to terminate the reaction, and the amount of the resulting angiotension I was measured by radio immunoassay whereby the inhibiting activity was determined.

Row | SMILES | IC50
1 | CCCC[C@H](NC(=O)[C@H](Cc1cccc2ccccc12)CS(=O)(=O)CC(O)COC(=O)C(C)(C)C)C(=O)N[C@@H](CC1CCCCC1)[C@@H](O)[C@@H](O)CN1CCOCC1 (mixture of isomers) [Example 2, (2S,3R,4S)-4-{L-N-[(2S)-3-[(2RS)-3-pivaloyloxy-2-hydroxypropyl]sulfonyl-2-(1-naphthylmethyl)propionyl]norleucyl}amino-5-cyclohexyl-1-morpholino-2,3-pentanediol] | 7.2 nM
2 | CCCC[C@H](NC(=O)[C@H](Cc1cccc2ccccc12)CS(=O)(=O)CC(COC(=O)CC)OC(=O)CC)C(=O)N[C@@H](CC1CCCCC1)[C@@H](O)[C@@H](O)CN1CCOCC1 (mixture of isomers) [Example 8, (2S,3R,4S)-4-{L-N-[(2S)-3-[(2RS)-2,3-dipropionyloxypropyl]sulfonyl,-2-(1-naphthylmethyl)propionyl]norleucyl}amino-5-cyclohexyl-1-morpholino-2,3-pentanediol] | 3.3 nM
3 | CCCC[C@H](NC(=O)[C@H](Cc1cccc2ccccc12)C[S+]([O-])c1ccc(OC(C)=O)cc1)C(=O)N[C@@H](CC1CCCCC1)[C@@H](O)[C@@H](O)CN1CCOCC1 (single isomer, unassigned) [Example 20 (having a low Rf value)] | 4 nM
4 | CCCC[C@H](NC(=O)[C@H](Cc1cccc2ccccc12)CS(=O)(=O)CC(COC(=O)CC)OC(C)=O)C(=O)N[C@@H](CC1CCCCC1)[C@@H](O)[C@@H](O)CN1CCOCC1 (mixture of isomers) [Example 13, (2S,3R,4S)-4-{L-N-[(2S)-3-[(2RS)-2-acetoxy-3-propionyloxypropyl]sulfonyl-2-(1-naphthylmethyl)propionyl]norleucyl}amino-5-cyclohexyl-1-morpholino-2,3-pentanediol] | 2 nM
5 | CC(=O)OCC(CS(=O)(=O)C[C@@H](Cc1cccc2ccccc12)C(=O)N[C@@H](Cc1c[nH]cn1)C(=O)N[C@@H](CC1CCCCC1)[C@@H](O)[C@@H](O)CN1CCOCC1)OC(C)=O (some centres unmarked) [Example 23] | 4.8 nM
6 | CCCC[C@H](NC(=O)[C@H](Cc1cccc2ccccc12)C[S+]([O-])CC(COC(C)=O)OC(C)=O)C(=O)N[C@@H](CC1CCCCC1)[C@@H](O)[C@@H](O)CN1CCOCC1 (mixture of isomers) [Example 6 (having a low Rf value), (2S,3R,4S)-4-{L-N-[(2S)-3-[(2RS)-2,3-diacetoxypropyl]sulfinyl-2-(1-naphthylmethyl)propionyl]norleucyl}amino-5-cyclohexyl-1-morpholino-2,3-pentanediol] | 4.1 nM
7 | CC(=O)OCCS(=O)(=O)C[C@@H](Cc1cccc2ccccc12)C(=O)N[C@@H](Cc1c[nH]cn1)C(=O)N[C@@H](CC1CCCCC1)[C@@H](O)[C@@H](O)CN1CCOCC1 [Example 30] | 1.9 nM
8 | CCCC[C@H](NC(=O)[C@H](Cc1ccccc1)CS(=O)(=O)CC(COC(C)=O)OC(C)=O)C(=O)N[C@@H](CC1CCCCC1)[C@@H](O)[C@@H](O)CN1CCOCC1 (mixture of isomers) [Example 15, (2S,3R,4S)-4-{L-N-[(2S)-3-[(2RS)-2,3-diacetoxypropyl]sulfonyl-2-benzylpropionyl]norleucyl}amino-5-cyclohexyl-1-morpholino-2,3-pentanediol] | 7.3 nM
9 | CCCC[C@H](NC(=O)[C@H](Cc1cccc2ccccc12)CS(=O)(=O)C1CCC(OC(C)=O)C1OC(C)=O)C(=O)N[C@@H](CC1CCCCC1)[C@@H](O)[C@@H](O)CN1CCOCC1 (stereo partly drawn) [Example 36, (2S,3R,4S),4-{L-N-[(2S)-3-(2,3-diacetoxycyclopentyl)sulfonyl-2-(1-naphthylmethyl)propionyl]norleucyl}amino-5-cyclohexyl-1-morpholino-2,3-pentanediol] | 1.9 nM
10 | CCCC[C@H](NC(=O)[C@H](Cc1cccc2ccccc12)CS(=O)(=O)CC(COC(C)=O)=NOC)C(=O)N[C@@H](CC1CCCCC1)[C@@H](O)[C@@H](O)CN1CCOCC1 [Example 41, (2S,3R,4S)-4-{L-N-[(2S)-3-(3-acetoxy-2-methoxyiminopropyl)sulfonyl-2-(1-naphthylmethyl)propionyl]norleucyl}amino-5-cyclohexyl-1-morpholino-2,3-pentanediol] | 0.79 nM
11 | CCCC[C@H](NC(=O)[C@H](Cc1cccc2ccccc12)CS(=O)(=O)CCOC(C)=O)C(=O)N[C@@H](CC1CCCCC1)[C@@H](O)[C@@H](O)CN1CCOCC1 [Example 3, (2S,3R,4S)-4{L-N-[(2S)-3-(2-acetoxyethyl)sulfonyl-2-(1-naphthylmethyl)propionyl]norleucyl)amino-5-cyclohexyl-1-morpholino-2,3-pentanediol] | 3.1 nM
12 | CCCC[C@H](NC(=O)[C@H](Cc1cccc2ccccc12)CS(=O)(=O)C1C(OC(C)=O)CCC1OC(C)=O)C(=O)N[C@@H](CC1CCCCC1)[C@@H](O)[C@@H](O)CN1CCOCC1 (stereo partly drawn) [Example 37, (2S,3R,4S)-4-{L-N-[(2S)-3-(2,5-diacetoxycyclopentyl)sulfonyl-2-(1-naphthylmethyl)propionyl]norleucyl}amino-5-cyclohexyl-1-morpholino-2,3-pentanediol] | 2.9 nM
13 | CCCC[C@H](NC(=O)[C@H](Cc1cccc2ccccc12)CS(=O)(=O)CC(COC(=O)CC)OC)C(=O)N[C@@H](CC1CCCCC1)[C@@H](O)[C@@H](O)CN1CCOCC1 (mixture of isomers) [Example 14, (2S,3R,4S)-4-{L-N-[(2S)-3-[(2RS)-2-methoxy-3-propionyloxypropyl]sulfonyl-2-(1-naphthylmethyl)propionyl]norleucyl}amino-5-cyclohexyl-1-morpholino-2,3-pentanediol] | 2 nM
14 | CCCC[C@H](NC(=O)[C@H](Cc1cccc2ccccc12)CS(=O)(=O)CC(COC)OC(C)=O)C(=O)N[C@@H](CC1CCCCC1)[C@@H](O)[C@@H](O)CN1CCOCC1 (mixture of isomers) [Example 28, (2S,3R,4S)-4-{L-N-[(2S)-3-[(2RS)-2-acetoxy-3-methoxypropyl]sulfonyl-2-(1-naphthylmethyl)propionyl]norleucyl}amino-5-cyclohexyl-1-morpholino-2,3-pentanediol] | 1.9 nM
15 | CCCC[C@H](NC(=O)[C@@H](CSc1ccc(OC(C)=O)cc1)Cc1cccc2ccccc12)C(=O)N[C@@H](CC1CCCCC1)[C@@H](O)[C@@H](O)CN1CCOCC1 [Example 18, (2S,3R,4S)-4-{L-N-[(2S)-3-(4-acetoxyphenylthio)-2-(1-naphthylmethyl)propionyl]norleucyl}amino-5-cyclohexyl-1-morpholino-2,3-pentanediol] | 9.2 nM
16 | CCCC[C@H](NC(=O)[C@H](Cc1cccc2ccccc12)CS(=O)(=O)CC(COC(C)=O)(OCC)OCC)C(=O)N[C@@H](CC1CCCCC1)[C@@H](O)[C@@H](O)CN1CCOCC1 [Example 48, (2S,3R,4S)-4-{L-N-[(2S)-3-(3-acetoxy-2,2-diethoxypropyl)sulfonyl-2-(1-naphthylmethyl)propionyl]norleucyl}amino-5-cyclohexyl-1-morpholino-2,3-pentanediol] | 3.9 nM
17 | CCCC[C@H](NC(=O)[C@H](Cc1cccc2ccccc12)CS(=O)(=O)CC(COC(C)=O)=NO)C(=O)N[C@@H](CC1CCCCC1)[C@@H](O)[C@@H](O)CN1CCOCC1 [Example 42, (2S,3R,4S)-4-{L-N-[(2S)-3-(3-acetoxy-2-hydroxyiminopropyl)sulfonyl-2-(1-naphthylmethyl)propionyl]norleucyl}amino-5-cyclohexyl-1-morpholino-2,3-pentanediol] | 6.1 nM
